Where “and” joins values, the source holds several entries; their conditions need not be identical. Equal values may be shown once.
Assays:
[1] = tested on: PC-9/GR tumor-bearing nude mouse model; assay: In vivo fluorescence imaging targeting test (DiR); design: species or system nude mice; settings: DiR 7.5 μg·mL^−1, 0.2 mL tail vein, within 24 h
Experimental: The nude mice with a body mass of approximately 25 g in the established PC-9/GR tumor-bearing nude mouse model were taken, and respectively injected with 0.2 mL of a DiR raw medicine, and DiR-coated RGD/R8-ERG/GEF-LIP and RGD/R8-ERG/GEF-LIP freeze-dried powder (DiR concentration: 7.5 μg·mL^−1) by tail vein injection, the nude mice were anesthetized with isoflurane at different time points, and placed in an in vivo imager to observe the distribution of liposome in vivo (Ex=748 nm, Em=780 nm, and exposure time: 2 s). After 24 h, after the last in vivo imaging was finished, the nude mice were killed, and the heart, liver, spleen, lung, kidney and tumor were taken out and placed in the in vivo imager to observe the distribution of liposome in the in vitro tissues. […] It is speculated that the particle size of freeze-dried powder is smaller than that of RGD/R8-ERG/GEF-LIP, which increases the probability of entering the tumor cells to a certain extent and increases the tumor targeting effect in vivo.

A549 cells = assay: Cell cycle by PI flow cytometry, A549 cells; format: cell-based, human; settings: A549, 48 h
Experimental: (§1) The number of cells in logarithmic growth phase was adjusted to 1.5×10^5·mL^−1, the cells were inoculated into a 6-well culture plate, and cultured in a 37° C. 5% CO2 incubator until 80% of the cells were fused and then a drug was added for treatment. […] After the drug acted for 48 h, a supernatant and cells were collected, centrifuged at 800 rpm·min^−1 for 10 min, washed once with PBS and fixed overnight with 75% ice ethanol, ethanol was discarded by centrifuging, and the cells were washed twice with PBS. The PBS was discarded, each sample was added with 0.5 ml of a PI staining solution to stain for 15 min at room temperature in the dark, and placed on a flow cytometer for measuring the proportion of cells in each cycle. The experiment was repeated 3 times.

PC-9 cells = assay: Cell cycle by PI flow cytometry, PC-9 cells; format: cell-based, human; settings: PC-9, 48 h
Experimental: as §1
[…]. Other operations were the same as above.

[2] = In vitro release of GEF by dialysis in different pH release media; format: physicochemical; settings: for cumulative release percentage of GEF: 37° C., listed as GEF raw medicine
Experimental: Due to its high lipid solubility, ERG could be dissolved in pure methanol or pure ethanol. However, the membranes of the liposomes directly ruptured in pure methanol or pure ethanol, and a release medium was difficult to meet the “sink” condition of ERG. Therefore, the in vitro release of ERG was not investigated in the experiment. […] Therefore, the in vitro release of GEF drug under different pH conditions was investigated in the experiment. […] Calculation was carried out according to the following formula: Cumulative release percentage Q (%)=(c1×V0+Σn=1^t-1Cv)/M0×100%
In the experiment, the in vitro release of GEF drug under different pH conditions was investigated. […] For specific operation, please refer to “5.7 Release Rate” in Part II in details.

[3] = tested on: PC-9/GR lung cancer xenografts; assay: Preliminary pharmacodynamic test in PC-9/GR tumor-bearing nude mice; format: in vivo, BABL/C nude mouse
Experimental: A PC-9/GR lung cancer cell line was digested from a culture flask, and then resuspended in 0.9% normal saline, and the cell concentration was adjusted to 2.5×10^7·mL^−1 and the cell was inoculated into the left axilla of BABL/C nude mouse. Each nude mouse was inoculated with 0.2 mL of a cell suspension.
The nude mice in each group were administered by tail vein injection.
After starting administration, the body mass of the nude mouse was regularly measured once, and the longest and shortest diameters of the tumor were measured with a vernier caliper to calculate the volume of the tumor. After consecutively administrating 7 times, the tumor volume of each group was measured and the tumor inhibitory rate of each administration group was calculated. Tumor volume (mm^3)=½×Long diameter (mm)×Short diameter (mm)^2
Tumor inhibitory rate (%)=(Average tumor weight of model control group (mg)—Average tumor weight of administration group (mg))/Average tumor weight of model control group (mg)×100%

With `CCCCCCCCCCCCCCCCCCN1/C(=C/C=C/C=C/C=C/C2=[N+](CCCCCCCCCCCCCCCCCC)c3ccccc3C2(C)C)C(C)(C)c2ccccc21.[I-]` [DiR raw medicine] the “fluorescence accumulation in the tumor site” value [1] was “not accumulated in the tumor site”.
With `CC(C)[C@@H](C)/C=C/[C@@H](C)[C@H]1CC[C@H]2C3=CC=C4C[C@@H](O)CC[C@]4(C)[C@H]3CC[C@]12C` [ERG, ergosterol] the S phase fraction (A549 cells; ERG 20 μM) was 32.05±2.27%, the G2/M phase fraction (PC-9 cells; ERG 40 μM) was 13.58±1.80% and the S phase fraction (PC-9 cells; ERG 40 μM, ERG+GEF 40+5 μM) was 26.93±2.02%.
For `COc1cc2ncnc(Nc3ccc(F)c(Cl)c3)c2cc1OCCCN1CCOCC1` [GEF, gefitinib], the G0/G1 phase fraction (A549 cells; GEF 20 μM, combination of two drugs) was 72.60±0.81%, the G0/G1 phase fraction (PC-9 cells; GEF 5 μM, ERG+GEF 40+5 μM) was 78.35±1.58% and the “cumulative release percentage of GEF” value ([2]; pH 6.4 40% methanol-containing phosphate buffer, 24 h) was 98.91% and 99.12%. For the same molecule, the release model fitting ([2]; pH 6.4 release medium (FIG. 12)) was “conforms to the first-order kinetic equation”, the release model fitting ([2]; pH 6.4 release medium (FIG. 25; freeze-dried powder first 4 h)) was “more in line with the first-order model” and the “cumulative release percentage of GEF” value ([2]; pH 7.4 40% methanol-containing phosphate buffer, within 24 h) was 76.91% and 81.10%. The “fitting correlation coefficient of the first-order kinetic equation” value ([2]; pH 7.4 release medium) was 0.9952, the release model fitting ([2]; pH 7.4 release medium (FIG. 12)) was “closer to the Higuchi equation” and the release model fitting ([2]; pH 7.4 release medium (FIG. 25; freeze-dried powder first 4 h)) was “more in line with the Higuchi model”. For the same molecule, the average tumor weight ([3]; compared with the model control group) was “highly significant difference” and the tumor volume change ([3]; course over 15 days of administration) was “rapid growth trend after the 9th day of administration”.
